Test results taken from US20240238299A1, “USE OF PYRROLOPYRIMIDINE COMPOUND” (GUANGZHOU JOYO PHARMATECH CO., LTD, priority 2021, published 2024).

Tests used:
rat primary astrocytes = test: Cell viability (CCK-8) in NMO-IgG induced astrocyte injury model; format: cell-based; details: NMO-IgG 250 μg/mL, 24 h
[1] = system: IL-6 secretion by astrocytes; test: IL-6 release caused by NMO-IgG in astrocytes (ELISA); format: cell-based, rat; details: NMO-IgG 250 μg/mL, 24 h; for IL-6 inhibition rate, Mean: 5 μM
Procedure: The compound was dissolved in DMSO to prepare a compound stock solution. The compound stock solution was then serially diluted in a gradient using DMSO to prepare a series of 1000× test compound solutions. These 1000× test compound solutions were further diluted at a ratio of 1:100 with cell culture medium to prepare a series of 10× test compound solutions. Finally, according to the experimental well plate loading design, a corresponding volume of 10× solution was added to each well, with two duplicate wells for each drug concentration. In the experiment, the test solution (i.e., 1× solution) had varying final concentrations of compound I, specifically 20, 2.222, 0.247, and 0.027 μM; the concentration of Meprednisone compound (i.e., 1× solution) was 30 μM; the concentration of BAY 11-7082 (i.e., 1× solution) was 5 μM; the final DMSO concentration in each well was 0.1%. DMSO without compound was added to blank control wells, with a final concentration of 0.1%.
1) Extraction and separation of primary astrocytes: A mixed glial cell culture medium was prepared from the cerebral cortex of 1-day-old newborn rats. After euthanizing the newborn rats, they were immersed in alcohol. Their skin was cut, the brains were removed, and the cerebral cortex was isolated. The tissues were then ground to remove the connective tissue, and the mixed glial cells were sieved through a 70 µm cell strainer. These cells were then seeded into a cell culture plate coated with poly-L-lysine. The culture medium was DMEM, containing 10% heat-inactivated fetal bovine serum, 100 U/mL penicillin, and […]. After about 12 days of in vitro culture, the cells reached confluence. Microglia, endothelial cells, and oligodendrocytes were removed from the mixed glial cells by vibratory shaking. […] 2) Culture of astrocytes: The isolated astrocytes were cultured in a 37° C., 5% CO2 incubator. The culture medium was changed every 3 to 4 days. The astrocytes could also be digested using trypsin (0.25%) and then frozen in liquid nitrogen for future use.
Human NMO-IgG was isolated from a sterile-filtered serum pool (AQP4-IgG-positive NMOSD) using a HiTrap Protein G-HP column (GE Healthcare). The serum samples were diluted at a ratio of 1:1 with binding buffer, and after packing the purification column with binding buffer, the serum sample was added. The column was subsequently washed with binding buffer again and the antibodies were eluted according to the instructions. Finally, the antibodies were concentrated on an Amicon Ultra-4 centrifugal filter (millipore) with a 10,000 MW cutoff. The concentrated immunoglobulin was filtered through a 0.22 µm filter. The protein concentration of the concentrate was determined using the BCA method and stored at −80° C. The total IgG extracted from the serum of NMOSD patients was NMO-IgG (containing AQP4-IgG), and the cells were stimulated at a protein concentration of 250 μg/mL during the experiment.
Astrocytes were cultured or revived until day 2 and then seeded into a 24-well plate at a density of 1.5×10^5 cells per well. The test compounds, including compound I, Meprednisone, and BAY11-7082, were pre-incubated with the cells for 30 minutes at the concentrations previously described. Subsequently, in each group, the cells continued to be stimulated with NMO-IgG at a final working concentration of 250 μg/mL for 24 hours to induce astrocyte damage. Normal human Control-IgG (CON-IgG) stimulation at a final working concentration of 250 μg/mL was used as a negative control.
After 24 hours of NMO-IgG stimulation of cells, the supernatant was collected. IL-6 levels were detected using an enzyme-linked immunosorbent assay (ELISA) following the instructions of the IL-6 ELISA kit (R&D Systems, USA, #RD6000B). The absorbance (OD values) of the samples in each group was measured, and the concentration of IL-6 in each experimental group was calculated through standard curve fitting. […]

[2] = system: MOG35-55-induced experimental autoimmune encephalomyelitis (EAE) mouse model; test: MOG35-55-induced EAE mouse model, clinical scoring and incidence; format: in vivo, C57BL/6 mice; details: for reduction rate in AUC for clinical scoring: 14 days, vs vehicle control

Cc1ccc(S(=O)(=O)/C=C/C#N)cc1 [BAY 11-7082, BAY11-7082, reference compound]
Cell viability percentage, Mean (rat primary astrocytes; 5 μM): 39.5%
IL-6 inhibition rate, Mean [1]: 104.2%
IL-6 inhibition rate, Mean ([1]; listed as BAY compound): approximately 104.2%

C[C@H]1C[C@H]2[C@@H]3CCC4=CC(=O)C=C[C@]4(C)[C@H]3C(=O)C[C@]2(C)[C@@]1(O)C(=O)CO [Meprednisone, reference compound]
viability at 30 µM (rat primary astrocytes; Rattus norvegicus, Astrocyte, 30 μM, read-out: Cell viability percentage, Mean): 81.7%
inhibition at 30 µM ([1]; Rattus norvegicus, Astrocyte, 30 μM, read-out: IL-6 inhibition rate, Mean): ~74.8%

C[C@@H]1C[C@H]2[C@@H]3CCC4=CC(=O)C=C[C@]4(C)[C@@]3(F)[C@@H](O)C[C@]2(C)[C@@]1(O)C(=O)CO [Dexamethasone, reference compound]
reduction rate in AUC for clinical scoring ([2]; 1 mg/kg QD oral): 65%
incidence of EAE ([2]; G3, 1 mg/kg PO QD, day 0): 0%
incidence of EAE ([2]; G3, 1 mg/kg PO QD, day 2): 0%
incidence of EAE ([2]; G3, 1 mg/kg PO QD, day 4): 0%
incidence of EAE ([2]; G3, 1 mg/kg PO QD, day 7): 0%
incidence of EAE ([2]; G3, 1 mg/kg PO QD, day 9): 0%
incidence of EAE ([2]; G3, 1 mg/kg PO QD, day 11): 0%
incidence of EAE ([2]; G3, 1 mg/kg PO QD, day 12): 10%
incidence of EAE ([2]; G3, 1 mg/kg PO QD, day 13): 20%
incidence of EAE ([2]; G3, 1 mg/kg PO QD, day 14): 60%
incidence of EAE ([2]; G3, 1 mg/kg PO QD, day 15): 60%
incidence of EAE ([2]; G3, 1 mg/kg PO QD, day 16): 60%
incidence of EAE ([2]; G3, 1 mg/kg PO QD, day 17): 50%
incidence of EAE ([2]; G3, 1 mg/kg PO QD, day 18): 50%
incidence of EAE ([2]; G3, 1 mg/kg PO QD, day 19): 50%
incidence of EAE ([2]; G3, 1 mg/kg PO QD, day 20): 50%
incidence of EAE ([2]; G3, 1 mg/kg PO QD, day 21): 50%
incidence of EAE ([2]; G3, 1 mg/kg PO QD, day 22): 40%
incidence of EAE ([2]; G3, 1 mg/kg PO QD, day 23): 30%
incidence of EAE ([2]; G3, 1 mg/kg PO QD, day 24): 30%
incidence of EAE ([2]; G3, 1 mg/kg PO QD, day 25): 30%
incidence of EAE ([2]; G3, 1 mg/kg PO QD, day 26): 30%
incidence of EAE ([2]; G3, 1 mg/kg PO QD, day 27): 30%
EAE clinical scoring, Mean ([2]; G3, 1 mg/kg QD oral, day 0): 0.00
EAE clinical scoring, Mean ([2]; G3, 1 mg/kg QD oral, day 2): 0.00
EAE clinical scoring, Mean ([2]; G3, 1 mg/kg QD oral, day 4): 0.00
EAE clinical scoring, Mean ([2]; G3, 1 mg/kg QD oral, day 7): 0.00
EAE clinical scoring, Mean ([2]; G3, 1 mg/kg QD oral, day 9): 0.00
EAE clinical scoring, Mean ([2]; G3, 1 mg/kg QD oral, day 11): 0.00
EAE clinical scoring, Mean ([2]; G3, 1 mg/kg QD oral, day 12): 0.10
EAE clinical scoring, Mean ([2]; G3, 1 mg/kg QD oral, day 13): 0.20
EAE clinical scoring, Mean ([2]; G3, 1 mg/kg QD oral, day 14): 0.70
EAE clinical scoring, Mean ([2]; G3, 1 mg/kg QD oral, day 15): 1.30
EAE clinical scoring, Mean ([2]; G3, 1 mg/kg QD oral, day 16): 1.70
EAE clinical scoring, Mean ([2]; G3, 1 mg/kg QD oral, day 17): 1.70
EAE clinical scoring, Mean ([2]; G3, 1 mg/kg QD oral, day 18): 1.40
EAE clinical scoring, Mean ([2]; G3, 1 mg/kg QD oral, day 19): 1.30
EAE clinical scoring, Mean ([2]; G3, 1 mg/kg QD oral, day 20): 1.00
EAE clinical scoring, Mean ([2]; G3, 1 mg/kg QD oral, day 21): 0.90
EAE clinical scoring, Mean ([2]; G3, 1 mg/kg QD oral, day 22): 0.80
EAE clinical scoring, Mean ([2]; G3, 1 mg/kg QD oral, day 23): 0.70
EAE clinical scoring, Mean ([2]; G3, 1 mg/kg QD oral, day 24): 0.30
EAE clinical scoring, Mean ([2]; G3, 1 mg/kg QD oral, day 25): 0.30
EAE clinical scoring, Mean ([2]; G3, 1 mg/kg QD oral, day 26): 0.30
EAE clinical scoring, Mean ([2]; G3, 1 mg/kg QD oral, day 27): 0.30

CCCCCCCCc1ccc(CCC(N)(CO)CO)cc1 [Fingolimod, reference compound]
reduction rate in AUC for clinical scoring ([2]; 0.5 mg/kg QD oral): 49%
EAE clinical scoring, Mean ([2]; G4, 0.5 mg/kg QD oral, day 0): 0.00
incidence of EAE ([2]; G4, 0.5 mg/kg QD oral, day 0): 0%
EAE clinical scoring, Mean ([2]; G4, 0.5 mg/kg QD oral, day 2): 0.00
incidence of EAE ([2]; G4, 0.5 mg/kg QD oral, day 2): 0%
EAE clinical scoring, Mean ([2]; G4, 0.5 mg/kg QD oral, day 4): 0.00
incidence of EAE ([2]; G4, 0.5 mg/kg QD oral, day 4): 0%
EAE clinical scoring, Mean ([2]; G4, 0.5 mg/kg QD oral, day 7): 0.00
incidence of EAE ([2]; G4, 0.5 mg/kg QD oral, day 7): 0%
EAE clinical scoring, Mean ([2]; G4, 0.5 mg/kg QD oral, day 9): 0.00
incidence of EAE ([2]; G4, 0.5 mg/kg QD oral, day 9): 0%
EAE clinical scoring, Mean ([2]; G4, 0.5 mg/kg QD oral, day 11): 0.00
incidence of EAE ([2]; G4, 0.5 mg/kg QD oral, day 11): 0%
EAE clinical scoring, Mean ([2]; G4, 0.5 mg/kg QD oral, day 12): 0.00
incidence of EAE ([2]; G4, 0.5 mg/kg QD oral, day 12): 0%
EAE clinical scoring, Mean ([2]; G4, 0.5 mg/kg QD oral, day 13): 0.20
incidence of EAE ([2]; G4, 0.5 mg/kg QD oral, day 13): 20%
EAE clinical scoring, Mean ([2]; G4, 0.5 mg/kg QD oral, day 14): 0.70
incidence of EAE ([2]; G4, 0.5 mg/kg QD oral, day 14): 60%
EAE clinical scoring, Mean ([2]; G4, 0.5 mg/kg QD oral, day 15): 1.30
incidence of EAE ([2]; G4, 0.5 mg/kg QD oral, day 15): 80%
EAE clinical scoring, Mean ([2]; G4, 0.5 mg/kg QD oral, day 16): 1.70
incidence of EAE ([2]; G4, 0.5 mg/kg QD oral, day 16): 80%
EAE clinical scoring, Mean ([2]; G4, 0.5 mg/kg QD oral, day 17): 1.70
incidence of EAE ([2]; G4, 0.5 mg/kg QD oral, day 17): 80%
EAE clinical scoring, Mean ([2]; G4, 0.5 mg/kg QD oral, day 18): 1.40
incidence of EAE ([2]; G4, 0.5 mg/kg QD oral, day 18): 70%
EAE clinical scoring, Mean ([2]; G4, 0.5 mg/kg QD oral, day 19): 1.30
incidence of EAE ([2]; G4, 0.5 mg/kg QD oral, day 19): 70%
EAE clinical scoring, Mean ([2]; G4, 0.5 mg/kg QD oral, day 20): 1.00
incidence of EAE ([2]; G4, 0.5 mg/kg QD oral, day 20): 60%
EAE clinical scoring, Mean ([2]; G4, 0.5 mg/kg QD oral, day 21): 0.90
incidence of EAE ([2]; G4, 0.5 mg/kg QD oral, day 21): 50%
EAE clinical scoring, Mean ([2]; G4, 0.5 mg/kg QD oral, day 22): 0.80
incidence of EAE ([2]; G4, 0.5 mg/kg QD oral, day 22): 50%
EAE clinical scoring, Mean ([2]; G4, 0.5 mg/kg QD oral, day 23): 0.70
incidence of EAE ([2]; G4, 0.5 mg/kg QD oral, day 23): 40%
EAE clinical scoring, Mean ([2]; G4, 0.5 mg/kg QD oral, day 24): 0.50
incidence of EAE ([2]; G4, 0.5 mg/kg QD oral, day 24): 20%
EAE clinical scoring, Mean ([2]; G4, 0.5 mg/kg QD oral, day 25): 0.50
incidence of EAE ([2]; G4, 0.5 mg/kg QD oral, day 25): 20%
EAE clinical scoring, Mean ([2]; G4, 0.5 mg/kg QD oral, day 26): 0.50
incidence of EAE ([2]; G4, 0.5 mg/kg QD oral, day 26): 20%
EAE clinical scoring, Mean ([2]; G4, 0.5 mg/kg QD oral, day 27): 0.50
incidence of EAE ([2]; G4, 0.5 mg/kg QD oral, day 27): 20%
